Values of other authors in patent US20020127714A1, “Inhibitors of alternative alleles of genes encoding products that mediate cell response to environmental changes” (Variagenics, Inc., a Delaware corporation, priority 1998, published 2002).
Where two headings read alike, the source gives them in different places. Values belong to the compound of their own block, whether it stands above or below them.

Key:
MGMT 160 arginine allele = molecular target: T1, MGMT 160 arginine allele (Homo sapiens, UniProt P16455, G160R); conditions: 160arg versus 160gly form of MGMT; also seen as reduced production of guanine from O6-benzyl[8-3H]guanine
T1 sequence (P16455 1-207 G160R): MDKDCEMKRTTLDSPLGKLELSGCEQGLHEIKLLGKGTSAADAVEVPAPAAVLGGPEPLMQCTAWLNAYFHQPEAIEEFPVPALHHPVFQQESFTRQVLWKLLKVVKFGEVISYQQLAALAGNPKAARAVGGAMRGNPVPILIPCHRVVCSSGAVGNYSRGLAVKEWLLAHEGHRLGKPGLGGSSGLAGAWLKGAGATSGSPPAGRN

serum asparagine = conditions: within hours of injection

- half life of 5-FU (normals): 0.13 to 0.333 h
- half life of 5-FU (patients homozygous for mutant DPD alleles (DPD deficiency)): > 2.5 h
Compound: O=c1[nH]cc(F)c(=O)[nH]1 [5-FU, 5-fluorouracil]

- resistance of the 160 arginine allele to inactivation, measured as an increase in the ED50 (MGMT 160 arginine allele): at least 20 fold
Compound: Nc1nc(OCc2ccccc2)c2nc[nH]c2n1 [O6 benzylguanine, O6-benzylguanine]

Compound: L-asparaginase
- blood levels of asparagine (serum asparagine): undetectable levels
